Test results from US20140107151A1, “TYROSINE KINASE INHIBITORS” (Principal Biopharma Inc., priority 2011, published 2014).

target: human recombinant Btk (Homo sapiens, UniProt Q06187); test: Btk Enzymatic Activity Assay (Caliper-based kinase assay); type: biochemical; settings: human recombinant Btk 2 nM, ATP 40 μM, peptide substrate 1 μM, room temperature for 3 h
Sequence (Q06187 whole entry): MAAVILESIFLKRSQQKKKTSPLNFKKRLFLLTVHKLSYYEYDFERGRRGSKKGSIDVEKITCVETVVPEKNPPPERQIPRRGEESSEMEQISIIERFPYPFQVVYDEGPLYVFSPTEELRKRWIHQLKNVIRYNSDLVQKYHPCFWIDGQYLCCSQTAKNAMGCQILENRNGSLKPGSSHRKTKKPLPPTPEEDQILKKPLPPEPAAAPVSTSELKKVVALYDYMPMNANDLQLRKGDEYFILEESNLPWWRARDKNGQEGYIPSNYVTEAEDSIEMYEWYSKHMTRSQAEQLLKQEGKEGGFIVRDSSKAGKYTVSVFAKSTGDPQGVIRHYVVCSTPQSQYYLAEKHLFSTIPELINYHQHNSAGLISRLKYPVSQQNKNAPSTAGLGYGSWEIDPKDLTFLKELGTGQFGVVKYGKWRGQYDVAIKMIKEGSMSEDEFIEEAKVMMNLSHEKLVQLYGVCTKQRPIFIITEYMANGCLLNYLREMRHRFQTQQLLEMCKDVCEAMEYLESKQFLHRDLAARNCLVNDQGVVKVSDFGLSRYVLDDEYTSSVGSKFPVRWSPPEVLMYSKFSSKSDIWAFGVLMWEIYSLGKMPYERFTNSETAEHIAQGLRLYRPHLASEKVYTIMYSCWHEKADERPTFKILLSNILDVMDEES
Procedure: A Caliper-based kinase assay (Caliper Life Sciences, Hopkinton, Mass.) was used to measure inhibition of Btk kinase activity of a compound of Formula (I). […] The reaction was then terminated with EDTA, final concentration 20 mM and the phosphorylated reaction product was quantified on a Caliper Desktop Profiler (Caliper LabChip 3000).

Point of comparison: `CC(C)C=C(C#N)C(=O)N1CCC[C@@H](c2cc3[nH]nc(N)c3c(-c3ccc(Oc4ccccc4)cc3)n2)C1` [Example 11, (R)-2-(3-(3-amino-4-(4-phenoxyphenyl)-1H-pyrazolo[4,3-c]pyridin-6-yl)piperidine-1-carbonyl)-4-methylpent-2-enenitrile], IC50 9.3 nM. Against it:
- N#CC(=CC1CC1)C(=O)N1CCC(c2cc3[nH]nc(N)c3c(-c3ccc(Oc4ccccc4)cc3)n2)CC1 [Example 8, 2-(4-(3-amino-4-(4-phenoxyphenyl)-1H-pyrazolo[4,3-c]pyridin-6-yl)piperidine-1-carbonyl)-3-cyclopropylacrylonitrile] — 4.7-fold lower, 2 nM
- N#CC(=CC1CC1)C(=O)N1CCCC(c2cc3[nH]nc(N)c3c(-c3ccc(Oc4ccccc4)cc3)n2)C1 (centres unmarked) [Example 9, 2-(3-(3-amino-4-(4-phenoxyphenyl)-1H-pyrazolo[4,3-c]pyridin-6-yl)piperidine-1-carbonyl)-3-cyclopropylacrylonitrile] — 8.5-fold lower, 1.1 nM
- N#CC(=CC1CC1)C(=O)N1CCCC1Cc1cc2[nH]nc(N)c2c(-c2ccc(Oc3ccccc3)cc2)n1 (centres unmarked) [Example 10, 2-(2-((3-amino-4-(4-phenoxyphenyl)-1H-pyrazolo[4,3-c]pyridin-6-yl)-methyl)pyrrolidine-1-carbonyl)-3-cyclopropylacrylonitrile] — 4.7-fold lower, 2 nM
- CC(C)C=C(C#N)C(=O)N1CCC(Cc2cc3[nH]nc(N)c3c(-c3ccc(Oc4ccccc4)cc3)n2)C1 (centres unmarked) [Example 10A, 2-(3-((3-amino-4-(4-phenoxyphenyl)-1H-pyrazolo[4,3-c]pyridin-6-yl)methyl)-pyrrolidine-1-carbonyl)-4-methylpent-2-enenitrile] — 7.8-fold lower, 1.2 nM
- CC(C)C=C(C#N)C(=O)N1CCC[C@H](c2cc3[nH]nc(N)c3c(-c3ccc(Oc4ccccc4)cc3)n2)C1 [Example 11A, (S)-2-(3-(3-amino-4-(4-phenoxyphenyl)-1H-pyrazolo[4,3-c]pyridin-6-yl)piperidine-1-carbonyl)-4-methylpent-2-enenitrile] — 1.7-fold higher, 15.5 nM
- CC(C)C=C(C#N)C(=O)N1CCC[C@H]1c1cc2[nH]nc(N)c2c(-c2ccc(Oc3ccccc3)cc2)n1 [Example 11B, (S)-2-(2-(3-amino-4-(4-phenoxyphenyl)-1H-pyrazolo[4,3-c]pyridin-6-yl)pyrrolidine-1-carbonyl)-4-methylpent-2-enenitrile] — within 1.5-fold, 13 nM
- CC(C)C=C(C#N)C(=O)N1CCC[C@@H]1c1cc2[nH]nc(N)c2c(-c2ccc(Oc3ccccc3)cc2)n1 [Example 11C, (R)-2-(2-(3-amino-4-(4-phenoxyphenyl)-1H-pyrazolo[4,3-c]pyridin-6-yl)pyrrolidine-1-carbonyl)-4-methylpent-2-enenitrile] — within 1.5-fold, 13.6 nM
